In patent US5151442A, “Chroman derivative active on the central nervous system, their method of preparation and pharmaceutical compositions in which they are present” (Sanofi, priority 1988, dated 1992):
Where a name gives a salt, the structure may show the parent alone.

Tested on: Female mice (Iffa Credo)
Assay: forced swimming test according to Porsolt et al. (immobility times over 4 minutes, 2nd to 6th minute)
Type: in vivo
Conditions: Mus musculus, ip, read-out: % inhibition (of the immobility times compared with control animals); for inhibition in vivo at 0.06 mg/kg: 0.06 mg/kg i.p.; for inhibition in vivo at 0.25 mg/kg: 0.25 mg/kg i.p.; for inhibition in vivo at 0.125 mg/kg: 0.125 mg/kg i.p.
Description: Thus the products according to the invention were subjected to the forced swimming test according to Porsolt et al. (Archives Internationales de Pharmacodynamie, 1977, 229, 327-336). Female mice (Iffa Credo) weighing 22-24 g are immersed for a period of 6 minutes in a beaker containing 800 ml of water at 24°±1° C. The immobility times are measured over 4 minutes from the 2nd to the 6th minute. The results are expressed as the percentage inhibition of the immobility times of the treated animals compared with the control animals.

Row | Compound | inhibition in vivo at 0.06 mg/kg [%] | inhibition in vivo at 1 mg/kg (1 mg/kg i.p.) [%] | inhibition in vivo at 0.25 mg/kg [%] | inhibition in vivo at 0.125 mg/kg [%]
1 | CN(C)S(=O)(=O)N[C@@H]1c2cc(C#N)ccc2OC(C)(C)[C@H]1O (relative stereo) [SR 44666, Trans-6-cyano-2,2-dimethyl-4-(N,N-dimethylsulfamoylamino)-3-hydroxychroman] | 21 | 23 | – | –
2 | CC1(C)Oc2ccc(C#N)cc2[C@@H](S(=O)(=O)C2CCCCC2)[C@@H]1O (relative stereo) [SR 44708, Trans-6-cyano-4-cyclohexylsulfonyl-2,2-dimethyl-3-hydroxychroman] | 21 | – | 37 | –
3 | CC1(C)Oc2ccc(C#N)cc2[C@@H](Nc2ccccc2)[C@@H]1O (relative stereo) [SR 46142 A] | 40 | – | – | –
4 | CC1(C)Oc2ccc(C#N)cc2[C@@H](Nc2ccc(Cl)cc2)[C@@H]1O (relative stereo) [SR 44546, Trans-4-(4-chloroanilino)-6-cyano-2,2-dimethyl-3-hydroxychroman] | 16 | – | 44 | –
5 | CN(C)CCS[C@@H]1c2cc(C#N)ccc2OC(C)(C)[C@H]1O (relative stereo) [SR 44652, Trans-6-cyano-2,2-dimethyl-4-(2-dimethylaminoethylthio)-3-hydroxychroman hydrochloride] | 25 | – | – | 27
6 | CC1(C)Oc2ccc(C#N)cc2[C@@H](NS(=O)(=O)c2ccccc2C(F)(F)F)[C@@H]1O (relative stereo) [SR 44665, Trans-6-cyano-2,2-dimethyl-3-hydroxy-4-(2-trifluoromethylbenzene-1-sulfonamido)chroman] | 24 | – | – | –
7 | CC1(C)Oc2ccc(C#N)cc2[C@@H](Nc2ccc(F)cc2)[C@@H]1O (relative stereo) [SR 46143] | 27 | – | – | –
8 | COC(=O)c1ccccc1N[C@@H]1c2cc(C#N)ccc2OC(C)(C)[C@H]1O (relative stereo) [SR 44588, Trans-6-cyano-2,2-dimethyl-3-hydroxy-4-(2-methoxycarbonylanilino)chroman] | 20 | – | – | 27
9 | CC1(C)Oc2ccc(C#N)cc2[C@@H](Nc2ccc(C(F)(F)F)cc2)[C@@H]1O (relative stereo) [SR 46276] | 40 | – | – | –
10 | CC1(C)C=C(Sc2ccc(Cl)cc2)c2cc(C#N)ccc2O1 [SR 44554, 4-(4-Chlorophenylthio)-6-cyano-2,2-dimethyl-2H-chromene] | 33 | – | – | –
